Laboratory results: patent publication US7241776B2, “Cyanoamidine P2X7 antagonists for the treatment of pain” (Abbott Laboratories, priority 2004, dated 2007)

SMILES	melting point [°C]
Cc1ccccc1CC(=NC#N)NC(NC(=O)CF)C(C)(C)C (stereo not drawn)	151 to 152
COc1ccc(CC(=O)NC(NC(Cc2ccccc2C)=NC#N)C(C)(C)C)cc1OC (stereo not drawn) [Example 3, N-(1-{[N-cyano-2-(2-methylphenyl)ethanimidoyl]amino}-2,2-dimethylpropyl)-2-(3,4-dimethoxyphenyl)acetamide]	153 to 155
Cc1ccccc1CC(=NC#N)NC(NC(=O)Cc1ccc2c(c1)OCO2)C(C)(C)C (stereo not drawn) [Example 5, 2-(1,3-benzodioxol-5-yl)-N-(1-{[N-cyano-2-(2-methylphenyl)ethanimidoyl]amino}-2,2-dimethylpropyl)acetamide]	167 to 169
Cc1ccccc1CC(=NC#N)NC(NC(=O)Cc1ccc(C#N)cc1)C(C)(C)C (stereo not drawn) [Example 6, N-(1-{[N-cyano-2-(2-methylphenyl)ethanimidoyl]amino}-2,2-dimethylpropyl)-2-(4-cyanophenyl)acetamide]	199 to 201
Cc1ccccc1CC(=NC#N)NC(NC(=O)Cc1ccc2c(c1)OCCO2)C(C)(C)C (stereo not drawn) [Example 7, N-(1-{[N-cyano-2-(2-methylphenyl)ethanimidoyl]amino}-2,2-dimethylpropyl)-2-(2,3-dihydro-1,4-benzodioxin-6-yl)acetamide]	180 to 181
Cc1ccccc1CC(=NC#N)NC(NC(=O)Cc1cccc2ccccc12)C(C)(C)C (stereo not drawn) [Example 9, N-(1-{[N-cyano-2-(2-methylphenyl)ethanimidoyl]amino}-2,2-dimethylpropyl)-2-(1-naphthyl)acetamide]	97 to 100
Cc1ccccc1CC(=NC#N)NC(NC(=O)CCCc1cccs1)C(C)(C)C (stereo not drawn) [Example 12, N-(1-{[N-cyano-2-(2-methylphenyl)ethanimidoyl]amino}-2,2-dimethylpropyl)-4-thien-2-ylbutanamide]	154 to 155
Cc1ccccc1CC(=NC#N)NC(NC(=O)Cc1ccc(F)c(F)c1)C(C)(C)C (stereo not drawn) [Example 13, N-(1-{[N-cyano-2-(2-methylphenyl)ethanimidoyl]amino}-2,2-dimethylpropyl)-2-(3,4-difluorophenyl)acetamide]	178 to 179
CSc1ccc(CC(=O)NC(NC(Cc2ccccc2C)=NC#N)C(C)(C)C)cc1 (stereo not drawn) [Example 15, N-(1-{[N-cyano-2-(2-methylphenyl)ethanimidoyl]amino}-2,2-dimethylpropyl)-2-[4-(methylthio)phenyl]acetamide]	201 to 202
COc1ccc(CCCC(=O)NC(NC(Cc2ccccc2C)=NC#N)C(C)(C)C)cc1 (stereo not drawn) [Example 16, N-(1-{[N-cyano-2-(2-methylphenyl)ethanimidoyl]amino}-2,2-dimethylpropyl)-4-(4-methoxyphenyl)butanamide]	171 to 172
Cc1ccccc1C(=NC#N)NC(NC(=O)Cc1ccc(Cl)cc1)C(C)(C)C (stereo not drawn) [Example 19, 2-(4-chlorophenyl)-N-(1-{[(cyanoimino)(2-methylphenyl)methyl]amino}-2,2-dimethylpropyl)acetamide]	109 to 110
CC(C)(C)C(NC(=O)Cc1ccc(Cl)cc1)NC(Cc1cccc2ncccc12)=NC#N (stereo not drawn) [Example 23, 2-(4-chlorophenyl)-N-(1-{[N-cyano-2-quinolin-5-ylethanimidoyl]amino}-2,2-dimethylpropyl)acetamide]	186 to 188
COc1ccc(CC(=O)NC(NC(=NC#N)c2cccc3ncccc23)C(C)(C)C)cc1OC (stereo not drawn) [Example 24, N-(1-{[(cyanoimino)(quinolin-5-yl)methyl]amino}-2,2-dimethylpropyl)-2-(3,4-dimethoxyphenyl)acetamide]	203 to 205
N#CN=C(Cc1ccccc1F)N[C@@H]1CCc2ccccc21 [Example 50, N′-cyano-N-[(1R)-2,3-dihydro-1H-inden-1-yl]-2-(2-fluorophenyl)ethanimidamide]	141 to 142

The remaining lines, values ahead:

melting point [°C]	SMILES
182 to 183	Cc1ccccc1CC(=NC#N)NC(NC(=O)Cc1ccccc1)C(C)(C)C (stereo not drawn) [Example 1, N-(1-{[N-cyano-2-(2-methylphenyl)ethanimidoyl]amino}-2,2-dimethylpropyl)-2-phenylacetamide]
183 to 185	Cc1ccccc1CC(=NC#N)NC(NC(=O)Cc1ccc(Cl)cc1)C(C)(C)C (stereo not drawn) [Example 2, 2-(4-chlorophenyl)-N-(1-{[N-cyano-2-(2-methylphenyl)ethanimidoyl]amino}-2,2-dimethylpropyl)acetamide]
199 to 201	COc1ccc(CC(=O)NC(NC(Cc2ccccc2C)=NC#N)C(C)(C)C)cc1 (stereo not drawn) [Example 4, N-(1-{[N-cyano-2-(2-methylphenyl)ethanimidoyl]amino}-2,2-dimethylpropyl)-2-(4-methoxyphenyl)acetamide]
172 to 173	Cc1ccccc1CC(=NC#N)NC(NC(=O)Cc1ccc2ncccc2c1)C(C)(C)C (stereo not drawn) [Example 10, N-(1-{[N-cyano-2-(2-methylphenyl)ethanimidoyl]amino}-2,2-dimethylpropyl)-2-quinolin-6-ylacetamide]
165 to 166	Cc1ccccc1CC(=NC#N)NC(NC(=O)Cc1ccc2cccnc2c1)C(C)(C)C (stereo not drawn) [Example 11, N-(1-{[N-cyano-2-(2-methylphenyl)ethanimidoyl]amino}-2,2-dimethylpropyl)-2-quinolin-7-ylacetamide]
196 to 198	CCSc1ccc(CC(=O)NC(NC(Cc2ccccc2C)=NC#N)C(C)(C)C)cc1 (stereo not drawn) [Example 14, N-(1-{[N-cyano-2-(2-methylphenyl)ethanimidoyl]amino}-2,2-dimethylpropyl)-2-[4-(ethylthio)phenyl]acetamide]
151 to 152	Cc1ccccc1CC(=NC#N)NC(NC(=O)CCCCc1ccccc1)C(C)(C)C (stereo not drawn) [Example 17, N-(1-{[N-cyano-2-(2-methylphenyl)ethanimidoyl]amino}-2,2-dimethylpropyl)-5-phenylpentanamide]
84 to 86	Cc1ccccc1CC(=NC#N)NC(NC(=O)Cc1cccnc1)C(C)(C)C (stereo not drawn) [Example 18, N-(1-{[N-cyano-2-(2-methylphenyl)ethanimidoyl]amino}-2,2-dimethylpropyl)-2-pyridin-3-ylacetamide]
118 to 119	Cc1ncccc1CC(=NC#N)NC(NC(=O)Cc1ccc(Cl)cc1)C(C)(C)C (stereo not drawn) [Example 20, 2-(4-chlorophenyl)-N-(1-{[N-cyano-2-(2-methylpyridin-3-yl)ethanimidoyl]amino}-2,2-dimethylpropyl)acetamide]
164 to 165	COc1ccc(CC(=O)NC(NC(Cc2cccnc2C)=NC#N)C(C)(C)C)cc1OC (stereo not drawn) [Example 21, N-(1-{[N-cyano-2-(2-methylpyridin-3-yl)ethanimidoyl]amino}-2,2-dimethylpropyl)-2-(3,4-dimethoxyphenyl)acetamide]
103 to 104	COc1ccc(CCC(C)NC(Cc2ccccc2C)=NC#N)cc1 (stereo not drawn) [Example 35, N′-cyano-N-[3-(4-methoxyphenyl)-1-methylpropyl]-2-(2-methylphenyl)ethanimidamide]
52 to 54	CC[C@@H](NC(Cc1cccnc1C)=NC#N)c1ccccc1 [Example 57, N′-cyano-2-(2-methylpyridin-3-yl)-N-[(1R)-1-phenylpropyl]ethanimidamide]
193 to 194	Cc1ncccc1CC(=NC#N)N[C@@H]1CCCc2ccccc21 [Example 58, N′-cyano-2-(2-methylpyridin-3-yl)-N-[(1R)-1,2,3,4-tetrahydronaphthalen-1-yl]ethanimidamide]
